Assay results taken from ChEMBL document CHEMBL5050844 (2019).

Experiments:
[1] = Induction of anti-CD3 antibodies-stimulated human exhausted T cell activation assessed fold increase in IFN-gamma secretion measured by ELISA assay; format: functional, T cell line; also: reference of the scale not given here
[2] = Induction of activation of human CD56+ CD3- NK cells co-cultured with human K562 cells in 1:1 ratio and assessed as increase in IFN-gamma secretion at 0.625 uM measured by ELISA assay; format: functional, Natural killer cell
[3] = Induction of anti-CD3 antibodies-stimulated human T cell activation at 1.11 uM assessed fold increase in GM-CSF secretion measured by ELISA assay; format: functional, T cell line; also: reference of the scale not given here
[4] = Induction of activation of human CD56+ CD3- NK cells co-cultured with human K562 cells in 1:1 ratio and assessed as increase in IFN-gamma secretion at 10 uM measured by ELISA assay; format: functional, Natural killer cell
[5] = Induction of anti-CD3/CD28 antibodies-stimulated human T cell activation at 1 uM assessed fold increase in IL-2 secretion measured by ELISA assay; format: functional, T cell line
[6] = Induction of anti-CD3 antibodies-stimulated human CD8+ T cell activation at 10 uM assessed fold increase in cell proliferation measured by flow cytometry analysis; format: functional, T cell line; also: reference of the scale not given here
[7] = Induction of anti-CD3/CD28 antibodies-stimulated human T cell activation at 4 uM assessed fold increase in IL-2 secretion measured by ELISA assay; format: functional, T cell line
[8] = Induction of anti-CD3 antibodies-stimulated human T cell activation at 1 uM assessed fold increase in IL-2 secretion measured by ELISA assay; format: functional, T cell line; also: reference of the scale not given here
B cell = experiment: Induction of anti-IgM-stimulated human CD20+ B cell activation at 10 to 1000 uM assessed as increase in CD69 expression measured as mean fluorescence intensity AUC by flow cytometry analysis; format: functional, cell-based; settings: dose 10-1000 µM
[9] = Induction of anti-CD3/CD28 antibodies-stimulated human anergic T cell activation at 10 uM assessed fold increase in IFN-gamma secretion measured by ELISA assay; format: functional, T cell line
[10] = Induction of anti-CD3 antibodies-stimulated human T cell activation at 1.11 uM assessed fold increase in IFN-gamma secretion measured by ELISA assay; format: functional, T cell line; also: reference of the scale not given here
[11] = Induction of anti-CD3/CD28 antibodies-stimulated human CD4+ T cell activation at 1.11 uM assessed fold increase in CD69 expression measured by flow cytometry analysis; format: functional, T cell line
[12] = Induction of anti-CD3/CD28 antibodies-stimulated human T cell activation at 4 uM assessed fold increase in CD25 expression measured by ELISA assay; format: functional, T cell line
[13] = Induction of anti-CD3/CD28 antibodies-stimulated human CD8+ T cell activation at 10 uM assessed fold increase in CD69 expression measured by flow cytometry analysis; format: functional, T cell line
[14] = Induction of anti-CD3 antibodies-stimulated human CD8+ T cell activation at 10 uM assessed fold increase in CD69 expression measured by flow cytometry analysis; format: functional, T cell line; also: reference of the scale not given here
[15] = Induction of anti-CD3/CD28 antibodies-stimulated human CD8+ T cell activation at 1.11 uM assessed fold increase in CD69 expression measured by flow cytometry analysis; format: functional, T cell line
[16] = Induction of activation of human CD56+ CD3- NK cells co-cultured with human K562 cells in 1:1 ratio and assessed as increase in TNF-alpha secretion at 0.625 uM measured by ELISA assay; format: functional, Natural killer cell
[17] = Induction of anti-CD3/CD28 antibodies-stimulated human T cell activation at 1.11 uM assessed fold increase in GM-CSF secretion measured by ELISA assay; format: functional, T cell line
[18] = Induction of anti-CD3/CD28 antibodies-stimulated human CD4+ T cell activation at 10 uM assessed fold increase in CD69 expression measured by flow cytometry analysis; format: functional, T cell line
[19] = Induction of anti-CD3/CD28 antibodies-stimulated human CD4+ T cell activation at 10 uM assessed fold increase in cell proliferation measured by flow cytometry analysis; format: functional, T cell line
[20] = Induction of activation of human CD56+ CD3- NK cells co-cultured with human K562 cells in 1:1 ratio and assessed as increase in TNF-alpha secretion at 2.5 uM measured by ELISA assay; format: functional, Natural killer cell
[21] = Induction of anti-CD3 antibodies-stimulated human T cell activation at 10 uM assessed fold increase in GM-CSF secretion measured by ELISA assay; format: functional, T cell line; also: reference of the scale not given here
[22] = Induction of anti-CD3 antibodies-stimulated human exhausted CD4+ T cell activation assessed fold increase in CTLA4 expression measured by flow cytometry analysis; format: functional, T cell line; also: reference of the scale not given here
[23] = Induction of anti-CD3 antibodies-stimulated human CD8+ T cell activation at 1.11 uM assessed fold increase in CD69 expression measured by flow cytometry analysis; format: functional, T cell line; also: reference of the scale not given here
[24] = Induction of activation of human CD56+ CD3- NK cells co-cultured with human K562 cells in 1:1 ratio and assessed as increase in TNF-alpha secretion at 10 uM measured by ELISA assay; format: functional, Natural killer cell
[25] = Induction of allogenic human T cell activation at 3 uM assessed fold increase in cell proliferation; format: functional, T cell line
[26] = Induction of anti-CD3/CD28 antibodies-stimulated human T cell activation at 1.11 uM assessed fold increase in TNF-alpha secretion measured by ELISA assay; format: functional, T cell line
[27] = Induction of anti-CD3/CD28 antibodies-stimulated human CD8+ T cell activation at 1.11 uM assessed fold increase in cell proliferation measured by flow cytometry analysis; format: functional, T cell line
[28] = Induction of anti-CD3 antibodies-stimulated human T cell activation at 10 uM assessed fold increase in TNF-alpha secretion measured by ELISA assay; format: functional, T cell line; also: reference of the scale not given here
[29] = Induction of anti-CD3 antibodies-stimulated human CD4+ T cell activation at 10 uM assessed fold increase in CD69 expression measured by flow cytometry analysis; format: functional, T cell line; also: reference of the scale not given here
[30] = Induction of anti-CD3 antibodies-stimulated human CD8+ T cell activation at 1.11 uM assessed fold increase in cell proliferation measured by flow cytometry analysis; format: functional, T cell line; also: reference of the scale not given here
[31] = Induction of anti-CD3 antibodies-stimulated human exhausted T cell activation assessed fold increase in IL-2 secretion measured by ELISA assay; format: functional, T cell line; also: reference of the scale not given here
[32] = Induction of anti-CD3 antibodies-stimulated human T cell activation at 1.11 uM assessed fold increase in TNF-alpha secretion measured by ELISA assay; format: functional, T cell line; also: reference of the scale not given here
[33] = Induction of anti-CD3 antibodies-stimulated human exhausted T cell activation assessed fold increase in GM-CSF secretion measured by ELISA assay; format: functional, T cell line; also: reference of the scale not given here
[34] = Induction of anti-CD3/CD28 antibodies-stimulated human T cell activation at 1.11 uM assessed fold increase in IFN-gamma secretion measured by ELISA assay; format: functional, T cell line
[35] = Induction of anti-CD3/CD28 antibodies-stimulated human anergic T cell activation at 0.37 uM assessed fold increase in IFN-gamma secretion measured by ELISA assay; format: functional, T cell line
[36] = Induction of activation of human CD56+ CD3- NK cells co-cultured with human K562 cells in 1:1 ratio and assessed as increase in IFN-gamma secretion at 2.5 uM measured by ELISA assay; format: functional, Natural killer cell
[37] = Induction of anti-CD3/CD28 antibodies-stimulated human T cell activation at 10 uM assessed fold increase in GM-CSF secretion measured by ELISA assay; format: functional, T cell line

Row | SMILES | fold change (FC) [1] | fold change (FC) [2] | fold change (FC) [3] | fold change (FC) [4] | fold change (FC) [5] | fold change (FC) [6] | fold change (FC) [7] | fold change (FC) [8] | AUC (B cell) | fold change (FC) [9] | fold change (FC) [10] | fold change (FC) [11] | fold change (FC) [12] | fold change (FC) [13] | fold change (FC) [14] | fold change (FC) [15] | fold change (FC) [16] | fold change (FC) [17] | fold change (FC) [18] | fold change (FC) [19] | further results
1 | Cn1cnnc1[C@@H]1C[C@@H]1c1cccc(N2Cc3c(cccc3C(F)(F)F)C2=O)c1 | 1.41 | 2.01 | <=1.5 | 2.01 | 1.01 | 3.01 | 2.51 | <=0.05 | 0.5 | <=2.5 | <=2 | <=1.2 | >=1.76 | 1.201 | <=1.2 | <=1.2 | 1.01 | 1.51 | 1.201 | >4 | fold change (FC) [20]: 1.01; fold change (FC) [21]: 2.01; fold change (FC) [22]: <=1.4; fold change (FC) [23]: <=1.2; fold change (FC) [24]: 1.01; fold change (FC) [25]: <=2; fold change (FC) [26]: <=1.5; fold change (FC) [27]: <=2; fold change (FC) [28]: <=1.5; fold change (FC) [29]: 1.201; fold change (FC) [30]: <=2; fold change (FC) [31]: 2.51; fold change (FC) [32]: <=1.5; fold change (FC) [33]: <=1.4; fold change (FC) [34]: <=2; fold change (FC) [35]: <=2.5; fold change (FC) [36]: 1.01; fold change (FC) [37]: 2.01
2 | Cn1cnnc1C(F)(F)[C@](C)(F)c1cccc(N2Cc3c(cc(CN4CC[C@@H](C#N)C4)cc3C(F)(F)F)C2=O)c1 | >1.61 | 2.01 | 1.51 | >=5 | >=7.5 | >4 | >=7.5 | 0.151 | 1.01 | >4.01 | 2.01 | 1.201 | 1.31 | 1.201 | 1.401 | 1.201 | 1.01 | 2.01 | 1.401 | >4 | fold change (FC) [20]: 2.01; fold change (FC) [21]: 2.01; fold change (FC) [22]: >1.61; fold change (FC) [23]: 1.201; fold change (FC) [24]: >=5; fold change (FC) [25]: <=2; fold change (FC) [26]: 2.01; fold change (FC) [27]: 3.01; fold change (FC) [28]: 2.01; fold change (FC) [29]: >1.601; fold change (FC) [30]: >4; fold change (FC) [31]: <=2.5; fold change (FC) [32]: <=1.5; fold change (FC) [33]: >1.61; fold change (FC) [34]: >4; fold change (FC) [35]: <=2.5; fold change (FC) [36]: >=5; fold change (FC) [37]: >4
3 | Cn1cnnc1C(F)(F)C(C)(F)c1cccc(N2Cc3c(cc(CN4CC[C@@H](F)C4)cc3C(F)(F)F)C2=O)c1 (single isomer, unassigned) | >1.61 | 2.01 | 1.51 | >=5 | >=7.5 | >4 | >=7.5 | >=0.201 | 1.01 | >4.01 | <=2 | 1.201 | 1.51 | 1.201 | 1.401 | 1.201 | 1.01 | 2.01 | 1.401 | >4 | fold change (FC) [20]: 2.01; fold change (FC) [21]: 2.01; fold change (FC) [22]: >1.61; fold change (FC) [23]: 1.201; fold change (FC) [24]: >=5; fold change (FC) [25]: <=2; fold change (FC) [26]: 2.01; fold change (FC) [27]: 2.01; fold change (FC) [28]: 1.51; fold change (FC) [29]: >1.601; fold change (FC) [30]: >4; fold change (FC) [31]: >3.01; fold change (FC) [32]: 1.51; fold change (FC) [33]: 1.41; fold change (FC) [34]: 2.01; fold change (FC) [35]: 2.51; fold change (FC) [36]: 2.01; fold change (FC) [37]: >4
4 | Cn1cnnc1CC1(c2cccc(N3Cc4c(cc(CN5CC(F)C5)cc4C(F)(F)F)C3=O)c2)COC1 | >1.61 | 2.01 | 2.01 | >=5 | >=7.5 | >4 | >=7.5 | 0.151 | 1.01 | >4.01 | 2.01 | 1.201 | 1.51 | 1.201 | 1.401 | 1.201 | 1.01 | 2.01 | 1.401 | >4 | fold change (FC) [20]: 2.01; fold change (FC) [21]: >4; fold change (FC) [22]: >1.61; fold change (FC) [23]: 1.201; fold change (FC) [24]: 2.01; fold change (FC) [25]: 2.01; fold change (FC) [26]: 2.01; fold change (FC) [27]: 3.01; fold change (FC) [28]: 1.51; fold change (FC) [29]: >1.601; fold change (FC) [30]: >4; fold change (FC) [31]: <=2.5; fold change (FC) [32]: 1.51; fold change (FC) [33]: >1.61; fold change (FC) [34]: 3.01; fold change (FC) [35]: 2.51; fold change (FC) [36]: 2.01; fold change (FC) [37]: >4
